Reference: ChEMBL document CHEMBL1201862, “PubChem BioAssay data set” (2004)
Calls of active or inactive are those of the source. Cut-off read from the data, not from the text of the source, for most assays here: actives have a measured EC50 and inactives only a lower limit.

Experiments:
[1] = target: Neurotensin receptor type 1 (Homo sapiens, UniProt P30989); format: functional;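 note: Image-based confirmatory dose-response assay measuring agonist activity at NTR1; NTR1-expressing U2OS osteosarcoma cells imaged for beta-arrestin GFP spot formation; agonist potency where compounds increase beta-arrestin recruitment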
Chain of Neurotensin receptor type 1 (P30989 whole entry): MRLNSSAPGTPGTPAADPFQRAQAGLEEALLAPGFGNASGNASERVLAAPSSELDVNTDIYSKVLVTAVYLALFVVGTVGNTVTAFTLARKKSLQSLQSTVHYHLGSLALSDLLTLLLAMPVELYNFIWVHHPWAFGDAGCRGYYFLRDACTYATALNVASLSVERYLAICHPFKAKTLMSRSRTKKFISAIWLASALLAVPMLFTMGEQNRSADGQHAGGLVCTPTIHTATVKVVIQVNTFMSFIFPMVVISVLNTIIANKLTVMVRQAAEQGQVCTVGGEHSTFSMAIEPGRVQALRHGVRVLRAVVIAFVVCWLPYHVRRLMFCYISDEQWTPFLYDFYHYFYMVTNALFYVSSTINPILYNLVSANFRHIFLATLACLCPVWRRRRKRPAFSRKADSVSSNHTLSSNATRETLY

[2] = target: T1, Zinc finger protein mex-5 (Caenorhabditis elegans, UniProt Q9XUB2); assay: potency of MEX-5 RNA-binding blockers – biochemical, C. elegans, fluorescence polarization, dose response (AID 1960)
T1 sequence (Q9XUB2 whole entry): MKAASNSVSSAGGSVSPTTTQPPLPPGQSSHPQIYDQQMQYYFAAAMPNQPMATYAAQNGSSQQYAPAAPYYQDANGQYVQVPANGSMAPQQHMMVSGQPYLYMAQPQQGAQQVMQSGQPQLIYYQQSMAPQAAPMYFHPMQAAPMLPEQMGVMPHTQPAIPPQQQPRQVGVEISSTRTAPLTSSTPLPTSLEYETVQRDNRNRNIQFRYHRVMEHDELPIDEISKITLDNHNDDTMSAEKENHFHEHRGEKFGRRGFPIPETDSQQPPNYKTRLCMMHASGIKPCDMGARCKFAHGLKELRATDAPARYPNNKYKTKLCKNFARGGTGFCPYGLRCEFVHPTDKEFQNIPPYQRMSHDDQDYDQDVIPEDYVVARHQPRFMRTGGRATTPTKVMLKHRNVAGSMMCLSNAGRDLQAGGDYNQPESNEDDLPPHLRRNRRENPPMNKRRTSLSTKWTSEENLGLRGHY

[3] = target: T2, RNA-binding protein pos-1 (Caenorhabditis elegans, UniProt G5EF15); assay: disruptors of C. elegans POS-1 RNA interaction – biochemical, fluorescence polarization, dose response (AID 1964);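 note: purified POS-1 fused to maltose binding protein made in E. coli; potency of compounds blocking POS-1 binding to fluorescent RNA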
T2 sequence (G5EF15 whole entry): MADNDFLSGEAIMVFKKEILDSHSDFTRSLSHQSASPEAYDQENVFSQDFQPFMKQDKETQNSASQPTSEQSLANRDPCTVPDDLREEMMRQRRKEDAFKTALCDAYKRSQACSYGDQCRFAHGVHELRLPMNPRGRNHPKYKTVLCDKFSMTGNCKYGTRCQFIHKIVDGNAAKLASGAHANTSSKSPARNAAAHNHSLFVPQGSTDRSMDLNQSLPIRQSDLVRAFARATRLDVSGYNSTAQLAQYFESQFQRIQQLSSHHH

[4] = Luminescence Cell-Based Dose Response HTS to Identify Activators of 5'UTR Stem-Loop Driven Prion Protein mRNA Translation in H4-C Neuroglioblastoma Cells. [Related pubchem assays: 1829 (Project Summary), 1814 (Primary HTS)]; format: functional
[5] = target: T3, Heat shock factor protein 1 (Mus musculus, UniProt P38532); assay: enhancement of HSF1-driven luciferase signal – cell-based, NIH3T3, luminescence, dose retest, confirmation (AID 435004); format: functional;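 note: stress induced by proteasome inhibitor MG132 added 30 min after compound; luciferase reporter driven by HSF1 response element in NIH3T3 cells; actives raise luminescence as potentiators of the MG132 stress response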
T3 sequence (P38532 whole entry): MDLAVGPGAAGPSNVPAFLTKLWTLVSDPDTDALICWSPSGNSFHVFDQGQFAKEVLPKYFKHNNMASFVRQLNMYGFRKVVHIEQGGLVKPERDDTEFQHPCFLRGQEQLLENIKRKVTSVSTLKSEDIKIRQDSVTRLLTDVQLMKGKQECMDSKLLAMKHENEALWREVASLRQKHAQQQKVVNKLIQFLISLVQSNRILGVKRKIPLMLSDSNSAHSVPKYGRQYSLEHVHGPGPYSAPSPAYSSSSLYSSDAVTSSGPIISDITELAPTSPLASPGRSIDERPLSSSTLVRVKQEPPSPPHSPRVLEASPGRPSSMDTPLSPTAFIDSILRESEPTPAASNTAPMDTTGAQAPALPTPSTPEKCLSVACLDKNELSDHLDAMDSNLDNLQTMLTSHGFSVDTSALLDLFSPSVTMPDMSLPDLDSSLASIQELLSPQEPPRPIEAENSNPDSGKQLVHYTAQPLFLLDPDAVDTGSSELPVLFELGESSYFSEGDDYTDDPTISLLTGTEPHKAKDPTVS

[6] = Luminescence Cell-Based Dose Response HTS to Identify Activators of Luciferase Translation or Activity in H4-C Neuroglioblastoma Cells. [Related pubchem assays: 1829 (Project Summary), 1814 (Primary HTS)]; format: functional
H4 = assay: Luminescence Cell-Based Dose Response HTS to Identify Activators of 5'UTR Stem-Loop Driven Prion Protein mRNA Translation in H4 Neuroglioblastoma Cells. [Related pubchem assays: 1829 (Project Summary), 1814 (Primary HTS)]; format: functional; settings: Homo sapiens
[7] = Luminescence Cell-Based Dose Confirmation HTS to Identify Activators of 5'UTR Stem-Loop Driven Alpha-Synuclein mRNA Translation in H4 Neuroglioblastoma Cells. [Related pubchem assays: 1829 (Project Summary), 1814 (Primary HTS)]; format: functional
[8] = Luminescence Cell-Based Dose Response HTS to Identify Activators of Luciferase Translation or Activity in H4 […] Cells. [Related pubchem assays: 1829 (Project Summary), 1814 (Primary HTS)]; format: functional
[9] = Luminescence Cell-Based Dose Retest to Confirm Activators of 5'UTR Stem-Loop Driven Alpha-Synuclein mRNA Translation in H4 Neuroglioblastoma Cells. [Related pubchem assays (depositor defined):AID1813, AID1829]; format: functional
[10] = target: Scavenger receptor class B member 1 (Mus musculus, UniProt Q61009); assay: mouse SR-BI DiI-HDL uptake blockers – ldlA[mSR-BI] cells, fluorescence, cherry pick, dose response (AID 493194); format: functional, cell-based;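 note: cellular uptake of fluorescent DiI-labeled HDL measured as cell fluorescence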
Chain of Scavenger receptor class B member 1 (Q61009 whole entry): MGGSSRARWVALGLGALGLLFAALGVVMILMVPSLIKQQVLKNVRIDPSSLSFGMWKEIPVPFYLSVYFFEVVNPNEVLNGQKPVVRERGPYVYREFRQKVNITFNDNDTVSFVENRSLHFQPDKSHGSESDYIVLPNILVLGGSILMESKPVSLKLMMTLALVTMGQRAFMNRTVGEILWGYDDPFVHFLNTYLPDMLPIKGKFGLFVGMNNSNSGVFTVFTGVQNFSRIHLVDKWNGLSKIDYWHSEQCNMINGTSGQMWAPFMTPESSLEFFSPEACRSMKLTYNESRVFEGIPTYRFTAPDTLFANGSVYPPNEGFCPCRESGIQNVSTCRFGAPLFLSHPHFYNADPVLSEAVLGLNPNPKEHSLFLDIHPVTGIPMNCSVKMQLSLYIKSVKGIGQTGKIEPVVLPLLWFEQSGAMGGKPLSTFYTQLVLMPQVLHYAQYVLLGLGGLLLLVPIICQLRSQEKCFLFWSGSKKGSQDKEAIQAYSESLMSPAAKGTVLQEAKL

[11] = target: Metabotropic glutamate receptor 4 (Rattus norvegicus, UniProt P31423); assay: Modulation of the Metabotropic Glutamate Receptor mGluR4: Rat PAM Potency. [Related pubchem assays (depositor defined):AID2437, AID2807]; format: functional
Chain of Metabotropic glutamate receptor 4 (Rattus norvegicus, UniProt P31423) (P31423 whole entry): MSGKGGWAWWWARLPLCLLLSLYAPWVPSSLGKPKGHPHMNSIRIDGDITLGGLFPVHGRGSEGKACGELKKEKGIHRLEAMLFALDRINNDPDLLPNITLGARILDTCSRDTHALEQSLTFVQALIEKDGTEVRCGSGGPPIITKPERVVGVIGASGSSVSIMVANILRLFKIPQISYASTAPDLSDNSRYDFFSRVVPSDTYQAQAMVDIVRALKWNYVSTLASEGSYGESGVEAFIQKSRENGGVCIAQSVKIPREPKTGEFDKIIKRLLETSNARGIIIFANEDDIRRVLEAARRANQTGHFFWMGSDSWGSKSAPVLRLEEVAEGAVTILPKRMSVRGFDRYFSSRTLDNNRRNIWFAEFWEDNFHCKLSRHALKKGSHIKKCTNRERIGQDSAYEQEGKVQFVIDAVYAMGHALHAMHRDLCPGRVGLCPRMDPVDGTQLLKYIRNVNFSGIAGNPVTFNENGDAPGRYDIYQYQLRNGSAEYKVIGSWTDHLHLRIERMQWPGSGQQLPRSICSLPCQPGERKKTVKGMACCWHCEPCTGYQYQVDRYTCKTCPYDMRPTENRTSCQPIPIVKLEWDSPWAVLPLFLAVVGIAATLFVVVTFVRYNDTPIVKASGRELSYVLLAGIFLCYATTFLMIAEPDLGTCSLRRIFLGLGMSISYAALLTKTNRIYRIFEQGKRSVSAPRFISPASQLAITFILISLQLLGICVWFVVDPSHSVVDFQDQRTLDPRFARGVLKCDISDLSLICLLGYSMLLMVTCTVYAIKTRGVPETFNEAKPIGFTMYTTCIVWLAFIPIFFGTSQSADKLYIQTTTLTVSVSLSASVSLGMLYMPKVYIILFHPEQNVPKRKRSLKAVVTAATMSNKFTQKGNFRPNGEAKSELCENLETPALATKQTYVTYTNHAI

[12] = target: Metabotropic glutamate receptor 4 (Homo sapiens, UniProt Q14833); assay: Modulation of the Metabotropic Glutamate Receptor mGluR4: Potency at human mGluR4. Modulation of intracellular Ca2+ using Fluo-4, AM, in CHO expressing recombinant receptor [Related pubchem assays (depositor defined):AID2437, AID2807]; format: functional, cell-based
Chain of Metabotropic glutamate receptor 4 (Homo sapiens, UniProt Q14833) (Q14833 whole entry): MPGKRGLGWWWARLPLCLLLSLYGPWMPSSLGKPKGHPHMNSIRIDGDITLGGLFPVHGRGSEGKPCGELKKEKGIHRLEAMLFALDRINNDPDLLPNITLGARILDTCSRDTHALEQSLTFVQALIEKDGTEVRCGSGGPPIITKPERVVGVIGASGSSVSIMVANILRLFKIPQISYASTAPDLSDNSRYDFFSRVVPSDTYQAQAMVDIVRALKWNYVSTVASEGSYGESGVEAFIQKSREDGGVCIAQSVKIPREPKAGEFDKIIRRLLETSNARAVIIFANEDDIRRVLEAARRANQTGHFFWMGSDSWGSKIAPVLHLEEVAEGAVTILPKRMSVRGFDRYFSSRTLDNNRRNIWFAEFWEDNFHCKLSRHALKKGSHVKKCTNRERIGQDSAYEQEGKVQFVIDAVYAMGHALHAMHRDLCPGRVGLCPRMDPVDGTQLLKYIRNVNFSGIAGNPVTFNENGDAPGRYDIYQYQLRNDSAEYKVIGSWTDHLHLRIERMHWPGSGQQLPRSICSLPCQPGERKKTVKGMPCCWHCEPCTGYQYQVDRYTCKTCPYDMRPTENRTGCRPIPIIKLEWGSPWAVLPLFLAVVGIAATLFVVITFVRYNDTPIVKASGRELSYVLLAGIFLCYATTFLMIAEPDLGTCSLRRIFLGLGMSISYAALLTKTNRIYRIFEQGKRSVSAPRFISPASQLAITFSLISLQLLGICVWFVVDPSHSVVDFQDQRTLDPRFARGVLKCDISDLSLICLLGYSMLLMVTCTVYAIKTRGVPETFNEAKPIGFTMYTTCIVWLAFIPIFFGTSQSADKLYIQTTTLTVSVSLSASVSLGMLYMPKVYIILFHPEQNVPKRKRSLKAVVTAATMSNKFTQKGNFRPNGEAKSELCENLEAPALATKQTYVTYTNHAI

[13] = protection from phage-mediated lysis, alamar blue read-out – E. coli UTI89, K1F phage, bacterial capsule biogenesis inhibitors (AID 488966); format: functional
[14] = target: Cyclin-dependent kinase 5/CDK5 activator 1 (Homo sapiens, UniProt Q00535); assay: blockade of human CDK5 activity – biochemical, cherry-picked samples, set 2, dose response (AID 504545)
Chain of Cyclin-dependent kinase 5/CDK5 activator 1 (Q00535 whole entry): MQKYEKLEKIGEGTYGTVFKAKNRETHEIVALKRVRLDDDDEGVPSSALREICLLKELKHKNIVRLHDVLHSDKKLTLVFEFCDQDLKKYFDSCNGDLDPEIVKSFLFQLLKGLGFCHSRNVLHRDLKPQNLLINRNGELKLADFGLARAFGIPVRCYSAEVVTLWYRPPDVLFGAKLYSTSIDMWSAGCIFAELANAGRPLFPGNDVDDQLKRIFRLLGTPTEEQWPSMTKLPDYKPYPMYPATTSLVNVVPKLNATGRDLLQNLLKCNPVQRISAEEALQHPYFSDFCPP
Chain of Cyclin-dependent kinase 5/CDK5 activator 1 (Q15078 whole entry, further chain): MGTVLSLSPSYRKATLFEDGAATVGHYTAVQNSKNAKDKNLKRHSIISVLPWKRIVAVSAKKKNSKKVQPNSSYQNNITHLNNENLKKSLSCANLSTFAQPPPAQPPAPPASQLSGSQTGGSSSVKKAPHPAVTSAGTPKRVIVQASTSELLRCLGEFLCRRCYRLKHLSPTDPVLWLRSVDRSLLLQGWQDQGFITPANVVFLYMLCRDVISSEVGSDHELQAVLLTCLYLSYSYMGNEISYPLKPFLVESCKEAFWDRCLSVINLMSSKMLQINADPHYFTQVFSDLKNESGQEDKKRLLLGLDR

[15] = alpha-synuclein stem-loop luciferase translation blockers – H4 neuroglioma cells, luminescence, confirmation (AID 1988); format: functional, cell-based
Trypsin = Trypsin (Sus scrofa, UniProt P00761); assay: trypsin protease activity blockade – biochemical, quenched peptide fluorescence, cherry-pick, selectivity assay for Rce1 protease inhibitor project, dose response (AID 488789)
Chain of Trypsin (P00761 whole entry): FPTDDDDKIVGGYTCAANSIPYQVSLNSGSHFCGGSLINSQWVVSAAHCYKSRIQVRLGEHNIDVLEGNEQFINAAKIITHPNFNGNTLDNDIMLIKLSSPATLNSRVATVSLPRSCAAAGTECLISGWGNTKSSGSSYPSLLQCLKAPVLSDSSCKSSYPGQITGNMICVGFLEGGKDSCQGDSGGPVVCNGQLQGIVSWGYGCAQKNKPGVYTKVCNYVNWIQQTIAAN

BJ [16] = assay: BJ-TERT fibroblast viability loss – cell-based, RAS-independent, luminescence, dose response (AID 1933); format: functional; settings: Homo sapiens
[17] = ADP-Glo luciferase signal interference – biochemical, luminescence, cherry-picked samples, set 2, artefact control for CDK5 inhibitor project, dose response (AID 504546); format: functional, cell-based
CAAX prenyl protease 1 = CAAX prenyl protease 1 (Saccharomyces cerevisiae S288c, UniProt P47154); assay: yeast CAAX protease Ste24 inhibition – biochemical, S. cerevisiae, plate reader, cherry-pick, dose response (AID 488815)
Chain of CAAX prenyl protease 1 (P47154 whole entry): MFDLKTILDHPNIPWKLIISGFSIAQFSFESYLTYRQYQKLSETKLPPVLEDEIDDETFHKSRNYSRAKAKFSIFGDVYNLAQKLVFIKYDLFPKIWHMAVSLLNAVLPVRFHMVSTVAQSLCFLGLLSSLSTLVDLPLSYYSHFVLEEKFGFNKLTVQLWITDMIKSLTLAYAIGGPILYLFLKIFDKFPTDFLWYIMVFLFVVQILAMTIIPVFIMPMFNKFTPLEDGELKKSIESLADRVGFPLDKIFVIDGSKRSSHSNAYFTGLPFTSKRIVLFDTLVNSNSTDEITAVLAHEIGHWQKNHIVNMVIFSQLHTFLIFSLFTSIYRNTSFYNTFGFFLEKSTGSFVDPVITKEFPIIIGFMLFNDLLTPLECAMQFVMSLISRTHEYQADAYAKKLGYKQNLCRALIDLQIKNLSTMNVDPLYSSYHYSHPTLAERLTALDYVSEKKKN

[18] = target: Luciferin 4-monooxygenase (Photinus pyralis, UniProt P08659); assay: inhibition of purified Photinus pyralis luciferase – biochemical, luminescence, dose response (AID 1891)
Chain of Luciferin 4-monooxygenase (P08659 whole entry): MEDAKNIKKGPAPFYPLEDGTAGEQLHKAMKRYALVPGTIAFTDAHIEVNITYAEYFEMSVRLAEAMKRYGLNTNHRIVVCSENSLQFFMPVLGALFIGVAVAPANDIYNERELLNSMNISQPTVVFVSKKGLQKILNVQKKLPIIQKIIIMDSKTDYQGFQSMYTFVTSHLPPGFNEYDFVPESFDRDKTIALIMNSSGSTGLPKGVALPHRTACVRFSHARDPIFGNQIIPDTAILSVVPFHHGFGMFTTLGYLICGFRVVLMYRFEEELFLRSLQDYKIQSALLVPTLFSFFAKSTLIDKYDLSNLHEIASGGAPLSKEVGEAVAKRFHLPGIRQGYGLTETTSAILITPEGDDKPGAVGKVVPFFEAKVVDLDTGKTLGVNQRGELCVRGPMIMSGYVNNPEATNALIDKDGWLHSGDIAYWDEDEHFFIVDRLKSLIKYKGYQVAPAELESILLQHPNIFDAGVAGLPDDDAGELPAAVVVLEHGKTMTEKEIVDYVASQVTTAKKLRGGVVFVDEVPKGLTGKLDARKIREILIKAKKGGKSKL

BJ [19] = assay: cells; format: functional, cell-based; settings: Homo sapiens
[20] = DRD fibroblast viability loss – cell-based, non-viral oncogenic, luminescence, dose response (AID 1934); format: functional; settings: Homo sapiens
[21] = Luminescence Cell-Based Dose Confirmation HTS to Identify Inhibitors of Platelet Dense Granule Release. [Related pubchem assays: 1663 (Primary HTS), 1678 (Summary of Project)]; format: functional
CAAX prenyl protease 2 [22] = target: CAAX prenyl protease 2 (Homo sapiens, UniProt Q9Y256); assay: inhibition of Ras-converting CAAX protease Rce1 – biochemical, yeast membranes, quenched-peptide fluorescence, cherry-pick, dose response (AID 588849)
Chain of CAAX prenyl protease 2 (Homo sapiens, UniProt Q9Y256) (Q9Y256 whole entry): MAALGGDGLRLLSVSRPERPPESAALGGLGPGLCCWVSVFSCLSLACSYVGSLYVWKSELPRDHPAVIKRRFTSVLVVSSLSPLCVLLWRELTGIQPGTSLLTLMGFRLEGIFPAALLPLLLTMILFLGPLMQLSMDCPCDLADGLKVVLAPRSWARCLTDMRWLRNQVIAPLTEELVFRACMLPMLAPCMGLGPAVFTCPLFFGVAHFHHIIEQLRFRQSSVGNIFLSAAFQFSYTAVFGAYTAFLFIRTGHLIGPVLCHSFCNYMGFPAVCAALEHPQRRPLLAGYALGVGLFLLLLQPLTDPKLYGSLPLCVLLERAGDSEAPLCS

[23] = Luminescence Cell-Based Dose Response HTS to Identify Inhibitors of 5'UTR Stem-Loop Driven Prion Protein mRNA Translation in H4 Neuroglioblastoma Cells. [Related pubchem assays: 1827 (Project Summary), 1813 (Primary HTS)]; format: functional
[24] = luciferase reporter signal suppression in cells – H4 neuroglioma cells, luminescence, dose response (AID 1990); format: functional, cell-based
CAAX prenyl protease 2 [25] = target: T4, CAAX prenyl protease 2 (Saccharomyces cerevisiae S288c, UniProt Q03530); format: biochemical
T4 sequence (Q03530 whole entry): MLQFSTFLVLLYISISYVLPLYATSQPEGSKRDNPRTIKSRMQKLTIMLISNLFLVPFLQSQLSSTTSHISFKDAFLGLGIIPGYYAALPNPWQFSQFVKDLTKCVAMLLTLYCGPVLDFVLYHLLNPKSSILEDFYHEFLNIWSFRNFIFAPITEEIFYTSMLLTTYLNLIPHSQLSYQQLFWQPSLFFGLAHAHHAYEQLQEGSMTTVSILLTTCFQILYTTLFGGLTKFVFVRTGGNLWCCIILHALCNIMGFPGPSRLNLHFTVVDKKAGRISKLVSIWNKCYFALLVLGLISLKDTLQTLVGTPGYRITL

BJ [26] = assay: BJ-TERT-LT-ST fibroblast viability loss – cell-based, RAS-independent, luminescence, dose response (AID 1935); format: functional; settings: Homo sapiens;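 note: BJ fibroblasts immortalized with TERT plus LT and ST oncogenes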

## O=C1NC(=O)C(=Cc2cn(CCOc3ccc4c(c3)OCO4)c3ccccc23)C(=O)N1
[1]
  EC50: 4.12 µM (active)
[2]
  EC50: 11.9 µM (active)
[3]
  EC50: 16.7 µM (active)

## Cc1cccc(NCc2nc3ccccc3n2C)c1
[4]
  EC50: 3.39 µM (active)
[5]
  EC50: 201 µM (active)
[6]
  EC50: 1.63 µM (active)
H4
  EC50: 8.1 µM (active)
[7]
  EC50: 0.296 µM (active)
[8]
  EC50: > 120 µM (not active)
[9]
  EC50: 0.752 µM (active)

## CCc1sc(N2C(=O)C3C4CCC(C4=C(C)C)C3C2=O)nc1-c1ccccc1 (centres undefined)
[10]
  AC50: 0.635 µM (active)

## O=C(Nc1ccc(N2C(=O)[C@@H]3[C@H](C2=O)[C@@H]2CC[C@H]3O2)c(Cl)c1)c1ccccn1
[11]
  EC50: 2.29 µM (active)
[12]
  EC50: 1.44 µM (active)

## O=C(Nc1nnc(/C=C/c2ccccc2)s1)c1ccco1
[13]
  IC50: > 75 µM (active)

## Cc1ccc2nc(-c3ccccc3)cn2c1
[14]
  AC50: 18.6 µM (active)
[15]
  EC50: 0.717 µM (active)
Trypsin
  AC50: 59.9 µM (active)
BJ [16]
  EC50: 9.54 µM (active)
[17]
  AC50: 59.3 µM (active)
CAAX prenyl protease 1
  AC50: 7.44 µM (active)
[18]
  EC50: 1.58 µM (active)
BJ [19]
  EC50: 9.05 µM (active)
[20]
  EC50: 7.45 µM (active)
[21]
  EC50: 2.18 µM (active)
CAAX prenyl protease 2 [22]
  AC50: > 100 µM (inactive)
[23]
  EC50: 8.72 µM (active)
[24]
  EC50: 1.32 µM (active)
CAAX prenyl protease 2 [25]
  AC50: > 100 µM (inactive)
BJ [26]
  EC50: > 150 µM (inconclusive)
